# Results as given in patent US11691970B2, “Pyrazolopyridinone compounds” (Janssen Pharmaceutica NV, priority 2017, dated 2023).
# Structures can show the parent of a compound that is named as a salt.
# How the values were obtained:
# [1] = target: T1, human FGFR3 wild type enzyme (cytoplasmic domain) (Homo sapiens, UniProt P22607); test: FGFR3 wild type mobility shift assay (enzymatic assay); format: biochemical; conditions: 75 μM ATP, 50 minutes at 30° C, Caliper EZ reader II
# T1 construct: human FGFR3 wild type enzyme (cytoplasmic domain, from Carna Biosciences); purchased Carna Biosciences
# Source text: FGFR3 Wild Type Mobility Shift Assay (Enzymatic Assay)
# [2] = tested on: NIH/3T3 cells transfected with control vector; test: NIH/3T3 mock cell proliferation assay (counter assay, CellTiter Glo); format: cell-based; conditions: Mus musculus, NIH3T3, 72 h, 72-hr incubation, top concentration 30 μM, counter assay for general toxicity, read-out: NIH/3T3 MOCK CTG (IC50)
# Protocol: NIH/3T3 Mock Cell Proliferation Assay
# In day 1, 90 μL of cell suspension (NIH/3T3 cells transfected with the same control vector as in the above two proliferation assays) (total 30,000 cells per well in growth medium (DMEM containing 1% Glutamax, 10% FBS and 1% Pen/Strep)) was seeded in a 96-well plate and then incubated overnight at 37° C. and 5% CO2. In day 2, 10 μL of growth medium containing 10-fold stock solution of testing compound was added into cell cultures (9 dose points with 3× serial dilution, starting with 30 μM, 0.3% DMSO final). After 72-hr incubation at 37° C. and 5% CO2, in day 5 a volume of 50 μL CellTiter Glo (CTG) reagent was added into cell-containing 96-well plate and the plate was incubated at room temperature for 10 minutes before RLUs (relative light unit) were measured on a microplate reader with luminescence detection module.
# [3] = target: T2, NIH/3T3 cells overexpressing FGFR3 WT-TACC3 fusion protein (Homo sapiens, UniProt P22607); test: NIH/3T3 FGFR3 WT-TACC3 cell proliferation assay (CellTiter Glo); format: cell-based; conditions: 72-hr incubation, top concentration 10 μM, read-out: NIH/3T3 FGFR3 WT-TACC3 CTG (IC50)
# T2 construct: NIH/3T3 FGFR3 WT-TACC3 CTG (IC50); other: 72-hr incubation, CellTiter Glo, top concentration 10 μM; fused on or other part: Q9Y6A5 (Transforming acidic coiled-coil-containing protein 3)
# Protocol: NIH/3T3 FGFR3 WT-TACC3 Cell Proliferation Assay
# In day 1, 90 μL of cell suspension (NIH/3T3 cells overexpressing FGFR3 WT-TACC3 fusion protein) (total 30,000 cells per well in growth medium (DMEM containing 1% Glutamax, 10% FBS and 1% Pen/Strep)) was seeded in a 96-well plate and then incubated overnight at 37° C. and 5% CO2. […] After 72-hr incubation at 37° C. and 5% CO2, in day 5 a volume of 50 μL CellTiter Glo (CTG) reagent was added into cell-containing 96-well plate and the plate was incubated at room temperature for 10 minutes before RLUs (relative light unit) were measured on a microplate reader with luminescence detection module.
# T2 sequence (P22607 whole entry, change not shown, the tested form may be a part): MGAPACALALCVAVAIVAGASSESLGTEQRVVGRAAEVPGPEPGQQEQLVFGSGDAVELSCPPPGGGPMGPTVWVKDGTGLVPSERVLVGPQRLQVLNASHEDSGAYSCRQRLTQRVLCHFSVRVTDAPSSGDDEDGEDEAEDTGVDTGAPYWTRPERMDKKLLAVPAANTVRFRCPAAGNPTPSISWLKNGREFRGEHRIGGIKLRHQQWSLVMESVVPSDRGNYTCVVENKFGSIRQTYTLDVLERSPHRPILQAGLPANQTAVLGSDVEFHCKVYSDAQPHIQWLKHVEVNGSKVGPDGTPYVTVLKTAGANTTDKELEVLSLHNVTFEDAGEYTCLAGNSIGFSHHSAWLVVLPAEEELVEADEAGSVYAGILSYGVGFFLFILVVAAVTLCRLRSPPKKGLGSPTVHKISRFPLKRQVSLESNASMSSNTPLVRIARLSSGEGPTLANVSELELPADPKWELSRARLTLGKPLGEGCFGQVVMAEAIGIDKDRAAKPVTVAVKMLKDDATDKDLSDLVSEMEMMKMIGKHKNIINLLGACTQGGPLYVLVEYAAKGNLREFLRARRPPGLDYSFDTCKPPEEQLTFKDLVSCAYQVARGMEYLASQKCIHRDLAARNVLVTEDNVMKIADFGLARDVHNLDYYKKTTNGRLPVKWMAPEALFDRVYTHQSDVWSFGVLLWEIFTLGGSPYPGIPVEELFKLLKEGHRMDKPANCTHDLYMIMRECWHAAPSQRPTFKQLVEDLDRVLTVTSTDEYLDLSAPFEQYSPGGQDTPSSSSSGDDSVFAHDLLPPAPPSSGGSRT
# T1 sequence (P22607 397-806 limits assumed): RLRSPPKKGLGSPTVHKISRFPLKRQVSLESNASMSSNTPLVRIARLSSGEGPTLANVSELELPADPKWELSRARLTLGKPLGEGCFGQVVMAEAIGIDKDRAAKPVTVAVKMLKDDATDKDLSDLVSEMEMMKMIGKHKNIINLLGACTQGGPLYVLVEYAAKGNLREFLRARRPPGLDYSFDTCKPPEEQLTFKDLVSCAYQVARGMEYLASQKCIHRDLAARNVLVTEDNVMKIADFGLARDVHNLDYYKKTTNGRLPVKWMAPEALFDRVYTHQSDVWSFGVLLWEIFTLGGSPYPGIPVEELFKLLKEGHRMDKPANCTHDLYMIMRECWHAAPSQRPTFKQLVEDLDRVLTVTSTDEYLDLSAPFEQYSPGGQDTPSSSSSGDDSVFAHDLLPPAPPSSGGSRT
IC50 [1] [nM],GI50 [3] [nM],Structure (SMILES),IC50 [2] [nM]
1.06,16.9,"CC(Nc1c(-c2nc3ccc(N4CCCCC4)c(F)c3[nH]2)c(=O)[nH]c2cn(C)nc12)c1ncccn1 (single isomer, unassigned) [Compound 15, (S*)-6-(7-fluoro-6-(piperidin-1-yl)-1H-benzo[d]imidazol-2-yl)-2-methyl-7-((1-(pyrimidin-2-yl)ethyl)amino)-2H-pyrazolo[4,3-b]pyridin-5(4H)-one]",3700
3.71,17.5,"CC(Nc1c(-c2nc3cc(C(F)(F)F)c(N4CCOCC4)cc3[nH]2)c(=O)[nH]c2cn(C)nc12)c1ncccn1 (single isomer, unassigned) [Compound 21, (R*)-2-methyl-6-(6-morpholino-5-(trifluoromethyl)-1H-benzo[d]imidazol-2-yl)-7-((1-(pyrimidin-2-yl)ethyl)amino)-2H-pyrazolo[4,3-b]pyridin-5(4H)-one]",5900
0.637,5.96,"CC(Nc1c(-c2nc3ccc(N4CCN(CC(F)(F)F)CC4)cc3[nH]2)c(=O)[nH]c2cn(C)nc12)c1ncccn1 (single isomer, unassigned) [Compound 26, (S*)-2-methyl-7-((1-(pyrimidin-2-yl)ethyl)amino)-6-(6-(4-(2,2,2-trifluoroethyl)piperazin-1-yl)-1H-benzo[d]imidazol-2-yl)-2H-pyrazolo[4,3-b]pyridin-5(4H)-one]",768
8.56,98.3,"COCC(Nc1c(-c2nc3c(F)cc(N4CCOCC4)cc3[nH]2)c(=O)[nH]c2cn(C)nc12)c1ncccn1 (single isomer, unassigned) [Compound 29, (S*)-6-(4-fluoro-6-morpholino-1H-benzo[d]imidazol-2-yl)-7-((2-methoxy-1-(pyrimidin-2-yl)ethyl)amino)-2-methyl-2H-pyrazolo[4,3-b]pyridin-5(4H)-one]",1530
0.839,49.6,"CC(Nc1c(-c2nc3ccc(OC4CCOCC4)cc3[nH]2)c(=O)[nH]c2cn(C)nc12)c1cocn1 (single isomer, unassigned) [Compound 36, (S*)-2-methyl-7-((1-(oxazol-4-yl)ethyl)amino)-6-(6-((tetrahydro-2H-pyran-4-yl)oxy)-1H-benzo[d]imidazol-2-yl)-2H-pyrazolo[4,3-b]pyridin-5(4H)-one]",753
0.903,21.3,Cc1cc2nc(-c3c(N[C@@H](C)c4ncccn4)c4nn(C)cc4[nH]c3=O)[nH]c2cc1C(=O)N1CCCC1 [Compound 2],998
1.78,19.7,"CCn1cc2[nH]c(=O)c(-c3nc4cc(C)c(N5CCOCC5)cc4[nH]3)c(N[C@@H](C)c3ncccn3)c2n1 [Compound 5, (S)-2-ethyl-6-(5-methyl-6-morpholino-1H-benzo[d]imidazol-2-yl)-7-((1-(pyrimidin-2-yl)-ethyl)amino)-2,4-dihydro-5H-pyrazolo[4,3-b]pyridin-5-one]",1050
2.02,74.3,"C[C@H](Nc1c(-c2nc3ccc(N4CCN(C)CC4)cc3[nH]2)c(=O)[nH]c2cn(C)nc12)c1ccccc1 [Compound 18, (S)-2-Methyl-6-(6-(4-methylpiperazin-1-yl)-1H-benzo[d]imidazol-2-yl)-7-((1-phenylethyl)amino)-2H-pyrazolo[4,3-b]pyridin-5(4H)-one]",680
0.495,22.3,"C[C@H](Nc1c(-c2nc3ccc(N4CCOC(F)(F)C4)cc3[nH]2)c(=O)[nH]c2cn(C)nc12)c1ncccn1 [Compound 25, (S)-6-(6-(2,2-difluoromorpholino)-1H-benzo[d]imidazol-2-yl)-2-methyl-7-((1-(pyrimidin-2-yl)ethyl)amino)-2H-pyrazolo[4,3-b]pyridin-5(4H)-one]",1210

# Second part, the compound before the results:
Structure (SMILES),IC50 [1] [nM],GI50 [3] [nM],IC50 [2] [nM]
"CC(Nc1c(-c2nc3ccc(N4CCOCC4)c(F)c3[nH]2)c(=O)[nH]c2cn(C)nc12)c1ncccn1 (single isomer, unassigned) [Compound 14, (S*)-6-(7-fluoro-6-morpholino-1H-benzo[d]imidazol-2-yl)-2-methyl-7-((1-(pyrimidin-2-yl)ethyl)amino)-2H-pyrazolo[4,3-b]pyridin-5(4H)-one]",1.9,4.06,424
"CC(Nc1c(-c2nc3ccc(C4CCOCC4)cc3[nH]2)c(=O)[nH]c2cn(C)nc12)c1ncccn1 (single isomer, unassigned) [Compound 22, (S*)-2-methyl-7-((1-(pyrimidin-2-yl)ethyl)amino)-6-(6-(tetrahydro-2H-pyran-4-yl)-1H-benzo[d]imidazol-2-yl)-2H-pyrazolo[4,3-b]pyridin-5(4H)-one]",0.377,18.1,1080
"CC(C)C(Nc1c(-c2nc3cnc(N4CCN(C)CC4)cc3[nH]2)c(=O)[nH]c2cn(C)nc12)c1ncccn1 (single isomer, unassigned) [Compound 23, (S*)-2-methyl-7-((2-methyl-1-(pyrimidin-2-yl)propyl)amino)-6-(6-(4-methylpiperazin-1-yl)-1H-imidazo[4,5-c]pyridin-2-yl)-2H-pyrazolo[4,3-b]pyridin-5(4H)-one]",0.979,34.6,266
"Cc1c(N2CCOCC2)ccc2nc(-c3c(NC(C)c4ncccn4)c4nn(C)cc4[nH]c3=O)[nH]c12 (single isomer, unassigned) [Compound 28, (S*)-2-methyl-6-(7-methyl-6-morpholino-1H-benzo[d]imidazol-2-yl)-7-((1-(pyrimidin-2-yl)ethyl)amino)-2H-pyrazolo[4,3-b]pyridin-5(4H)-one]",0.939,10,2070
"C[C@@H](Nc1c(-c2nc3ccc(N4CCN(C)CC4)cc3[nH]2)c(=O)[nH]c2cn(C)nc12)c1ncccc1C(F)(F)F (single isomer, unassigned) [Compound 32, (R*)-2-methyl-6-(6-(4-methylpiperazin-1-yl)-1H-benzo[d]imidazol-2-yl)-7-((1-(3-(trifluoromethyl)pyridin-2-yl)ethyl)amino)-2H-pyrazolo[4,3-b]pyridin-5(4H)-one 0.2 formate]",4.29,195,4230
"CC(Nc1c(-c2nc3ccc(N4CCCCC4)cc3[nH]2)c(=O)[nH]c2cn(C)nc12)c1ncccn1 (single isomer, unassigned) [Compound 34, (S*)-2-methyl-6-(6-(piperidin-1-yl)-1H-benzo[d]imidazol-2-yl)-7-((1-(pyrimidin-2-yl)-ethyl)amino)-2H-pyrazolo[4,3-b]pyridin-5(4H)-one]",1.22,23.3,734
"CCC(Nc1c(-c2nc3ccc(N4CCOCC4)cc3[nH]2)c(=O)[nH]c2cn(C)nc12)c1ncccn1 (single isomer, unassigned) [Compound 39, (S*)-2-methyl-6-(6-morpholino-1H-benzo[d]imidazol-2-yl)-7-((1-(pyrimidin-2-yl)-propyl)amino)-2H-pyrazolo[4,3-b]pyridin-5(4H)-one]",0.881,16.3,458
"COc1cc(N2CCOCC2)cc2[nH]c(-c3c(NC(C)c4ncccn4)c4nn(C)cc4[nH]c3=O)nc12 (single isomer, unassigned) [Compound 51, (S*)-6-(4-methoxy-6-morpholino-1H-benzo[d]imidazol-2-yl)-2-methyl-7-((1-(pyrimidin-2-yl)ethyl)amino)-2,4-dihydro-5H-pyrazolo[4,3-b]pyridin-5-one]",0.788,44.6,1160
"CCn1cc2[nH]c(=O)c(-c3nc4c(F)cc(N5CCOCC5)cc4[nH]3)c(N[C@@H](C)c3ncccn3)c2n1 [Compound 6, (S)-2-ethyl-6-(4-fluoro-6-morpholino-1H-benzo[d]imidazol-2-yl)-7-((1-(pyrimidin-2-yl)-ethyl)amino)-2,4-dihydro-5H-pyrazolo[4,3-b]pyridin-5-one]",1.16,13.8,1280
"C[C@H](Nc1c(-c2nc3ccc(C4CCOCC4)c(F)c3[nH]2)c(=O)[nH]c2cn(C)nc12)c1ncccn1 [Compound 13, (S)-6-(7-fluoro-6-(tetrahydro-2H-pyran-4-yl)-1H-benzo[d]imidazol-2-yl)-2-methyl-7-((1-(pyrimidin-2-yl)ethyl)amino)-2H-pyrazolo[4,3-b]pyridin-5(4H)-one]",1.15,22.1,2100
